Measured values as given in US20260078135A1, “POLYCYCLIC QUINAZOLINES FOR INHIBITION OF ERBB2” (Enliven Inc., priority 2022, published 2026).

What was measured:
Ba/F3 ERBB2 YVMA = Ba/F3 ERBB2 YVMA (Homo sapiens, UniProt P04626, DUP772-775, cells depend on it); assay: Cell viability assay (CellTiter Glo), Ba/F3 cells engineered to express ERBB2 YVMA; format: cell-based, mouse; conditions: Ba/F3 cells expressing human ERBB2 YVMA mutant, 72 hours, read-out: Ba/F3 ERBB2 YVMA, IC50
In short: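 Ba/F3 cells (IL-3-independent via stable retroviral human ERBB2 YVMA) seeded 3000/well and given compound from about 10 μM to 0.51 nM in three-fold steps, DMSO ≤0.1%, 72 h at 37° C. Viability by CellTiter Glo luminescence, normalized to DMSO and media-only controls. Sigmoidal nonlinear fit.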

[1] = biological target: T1, phosphorylated ERBB2 (pERBB2) (Homo sapiens, UniProt P04626); assay: Detection of phosphorylated ERBB2 (pERBB2) by ELISA in BT-474 cells; format: cell-based; conditions: four hour incubation
T1 construct: endogenous in cells; host or cells: BT-474
In short: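 BT-474 cells were treated with compounds (fourfold dilutions, 10 μM to 0.01 nM final) for 4 h at 37 °C, then lysed. pERBB2 in lysates was quantified by ELISA with an HRP anti-phosphotyrosine detection antibody and TMB read at 450 nm; % relative activity was normalized to no-cell and 0.1% DMSO controls.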

[2] = biological target: T2, phosphorylated EGFR (pEGFR) (Homo sapiens, UniProt P00533); assay: Detection of phosphorylated EGFR (pEGFR) by AlphaLISA in EGF-stimulated A431 cells; format: cell-based; conditions: A431 cells (10% FBS), 4 hours incubation, EGF 30 ng/mL for 10 minutes
T2 construct: performed to measure phosphorylated EGFR levels using A431 cells (10% FBS); endogenous in cells; host or cells: A431
In short: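 pEGFR was quantified by AlphaLISA in lysates of A431 cells (10% FBS) given a 10 min pulse of EGF at 30 ng/mL after 4 h compound exposure at 37 °C. IC50 came from a four-parameter fit of % inhibition between DMSO and staurosporine controls.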

Chain of Ba/F3 ERBB2 YVMA (P04626 with tags, fused parts or gaps DUP772-775): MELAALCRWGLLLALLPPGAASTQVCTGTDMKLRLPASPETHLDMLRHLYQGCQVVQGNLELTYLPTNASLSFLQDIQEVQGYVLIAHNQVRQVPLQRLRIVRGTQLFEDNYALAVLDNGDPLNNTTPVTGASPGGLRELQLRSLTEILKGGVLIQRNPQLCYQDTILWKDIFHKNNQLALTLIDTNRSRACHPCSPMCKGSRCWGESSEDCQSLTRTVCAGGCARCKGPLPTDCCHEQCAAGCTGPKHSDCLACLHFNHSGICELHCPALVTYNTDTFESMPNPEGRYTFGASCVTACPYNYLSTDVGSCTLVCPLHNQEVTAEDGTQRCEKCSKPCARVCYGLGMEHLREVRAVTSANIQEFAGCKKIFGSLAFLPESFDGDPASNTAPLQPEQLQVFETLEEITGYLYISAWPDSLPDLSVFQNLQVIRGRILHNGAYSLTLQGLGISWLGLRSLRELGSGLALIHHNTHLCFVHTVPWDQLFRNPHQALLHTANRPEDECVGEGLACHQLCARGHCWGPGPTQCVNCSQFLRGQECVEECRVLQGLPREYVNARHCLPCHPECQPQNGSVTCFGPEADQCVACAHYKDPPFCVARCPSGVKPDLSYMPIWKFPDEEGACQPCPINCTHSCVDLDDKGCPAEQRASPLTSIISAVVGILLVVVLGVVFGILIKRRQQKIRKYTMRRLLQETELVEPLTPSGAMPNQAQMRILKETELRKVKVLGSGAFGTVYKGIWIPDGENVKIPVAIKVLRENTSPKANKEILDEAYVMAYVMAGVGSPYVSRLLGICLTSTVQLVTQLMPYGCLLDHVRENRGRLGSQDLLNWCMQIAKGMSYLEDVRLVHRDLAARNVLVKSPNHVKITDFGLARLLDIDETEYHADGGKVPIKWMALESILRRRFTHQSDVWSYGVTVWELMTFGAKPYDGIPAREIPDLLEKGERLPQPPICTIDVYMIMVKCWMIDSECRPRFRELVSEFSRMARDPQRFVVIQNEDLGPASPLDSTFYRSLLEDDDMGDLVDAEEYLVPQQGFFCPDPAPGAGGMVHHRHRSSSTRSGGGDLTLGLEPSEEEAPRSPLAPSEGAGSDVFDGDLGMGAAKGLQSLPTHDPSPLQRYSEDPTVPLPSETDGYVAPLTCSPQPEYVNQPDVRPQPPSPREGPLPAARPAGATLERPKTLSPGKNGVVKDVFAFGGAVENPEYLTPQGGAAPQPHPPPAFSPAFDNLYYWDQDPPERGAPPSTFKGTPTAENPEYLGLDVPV
T2 sequence (P00533 25-1210): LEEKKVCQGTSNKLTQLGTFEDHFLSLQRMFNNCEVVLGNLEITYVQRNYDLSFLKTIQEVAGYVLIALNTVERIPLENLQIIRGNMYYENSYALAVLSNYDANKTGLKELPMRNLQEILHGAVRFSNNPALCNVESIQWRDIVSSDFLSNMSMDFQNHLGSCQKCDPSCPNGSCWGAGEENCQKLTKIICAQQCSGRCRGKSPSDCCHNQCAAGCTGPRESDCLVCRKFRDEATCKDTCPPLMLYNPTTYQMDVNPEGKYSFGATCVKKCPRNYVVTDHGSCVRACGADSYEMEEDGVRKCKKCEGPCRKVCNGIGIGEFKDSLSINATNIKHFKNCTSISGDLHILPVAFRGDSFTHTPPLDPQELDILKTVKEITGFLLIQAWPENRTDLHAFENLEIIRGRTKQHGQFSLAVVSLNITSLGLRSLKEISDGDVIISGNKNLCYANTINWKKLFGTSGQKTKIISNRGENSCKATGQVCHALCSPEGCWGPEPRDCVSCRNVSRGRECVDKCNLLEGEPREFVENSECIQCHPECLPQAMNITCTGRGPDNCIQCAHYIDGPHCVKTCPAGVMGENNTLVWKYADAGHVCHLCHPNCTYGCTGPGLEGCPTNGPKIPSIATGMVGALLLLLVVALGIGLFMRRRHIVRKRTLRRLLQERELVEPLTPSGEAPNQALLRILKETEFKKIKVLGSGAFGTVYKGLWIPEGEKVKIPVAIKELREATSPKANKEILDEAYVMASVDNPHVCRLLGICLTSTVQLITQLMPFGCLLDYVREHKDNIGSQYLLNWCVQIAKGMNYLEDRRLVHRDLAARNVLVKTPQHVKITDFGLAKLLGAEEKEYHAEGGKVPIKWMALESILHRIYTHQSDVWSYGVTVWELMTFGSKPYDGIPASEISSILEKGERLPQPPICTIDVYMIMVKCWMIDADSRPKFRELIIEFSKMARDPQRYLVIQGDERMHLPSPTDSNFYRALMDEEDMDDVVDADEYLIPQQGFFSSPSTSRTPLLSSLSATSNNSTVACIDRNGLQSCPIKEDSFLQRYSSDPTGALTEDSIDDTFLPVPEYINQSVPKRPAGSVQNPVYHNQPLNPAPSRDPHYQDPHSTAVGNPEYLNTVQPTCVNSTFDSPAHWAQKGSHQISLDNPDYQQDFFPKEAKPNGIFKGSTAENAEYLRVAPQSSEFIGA
T1 sequence (P04626 23-1255): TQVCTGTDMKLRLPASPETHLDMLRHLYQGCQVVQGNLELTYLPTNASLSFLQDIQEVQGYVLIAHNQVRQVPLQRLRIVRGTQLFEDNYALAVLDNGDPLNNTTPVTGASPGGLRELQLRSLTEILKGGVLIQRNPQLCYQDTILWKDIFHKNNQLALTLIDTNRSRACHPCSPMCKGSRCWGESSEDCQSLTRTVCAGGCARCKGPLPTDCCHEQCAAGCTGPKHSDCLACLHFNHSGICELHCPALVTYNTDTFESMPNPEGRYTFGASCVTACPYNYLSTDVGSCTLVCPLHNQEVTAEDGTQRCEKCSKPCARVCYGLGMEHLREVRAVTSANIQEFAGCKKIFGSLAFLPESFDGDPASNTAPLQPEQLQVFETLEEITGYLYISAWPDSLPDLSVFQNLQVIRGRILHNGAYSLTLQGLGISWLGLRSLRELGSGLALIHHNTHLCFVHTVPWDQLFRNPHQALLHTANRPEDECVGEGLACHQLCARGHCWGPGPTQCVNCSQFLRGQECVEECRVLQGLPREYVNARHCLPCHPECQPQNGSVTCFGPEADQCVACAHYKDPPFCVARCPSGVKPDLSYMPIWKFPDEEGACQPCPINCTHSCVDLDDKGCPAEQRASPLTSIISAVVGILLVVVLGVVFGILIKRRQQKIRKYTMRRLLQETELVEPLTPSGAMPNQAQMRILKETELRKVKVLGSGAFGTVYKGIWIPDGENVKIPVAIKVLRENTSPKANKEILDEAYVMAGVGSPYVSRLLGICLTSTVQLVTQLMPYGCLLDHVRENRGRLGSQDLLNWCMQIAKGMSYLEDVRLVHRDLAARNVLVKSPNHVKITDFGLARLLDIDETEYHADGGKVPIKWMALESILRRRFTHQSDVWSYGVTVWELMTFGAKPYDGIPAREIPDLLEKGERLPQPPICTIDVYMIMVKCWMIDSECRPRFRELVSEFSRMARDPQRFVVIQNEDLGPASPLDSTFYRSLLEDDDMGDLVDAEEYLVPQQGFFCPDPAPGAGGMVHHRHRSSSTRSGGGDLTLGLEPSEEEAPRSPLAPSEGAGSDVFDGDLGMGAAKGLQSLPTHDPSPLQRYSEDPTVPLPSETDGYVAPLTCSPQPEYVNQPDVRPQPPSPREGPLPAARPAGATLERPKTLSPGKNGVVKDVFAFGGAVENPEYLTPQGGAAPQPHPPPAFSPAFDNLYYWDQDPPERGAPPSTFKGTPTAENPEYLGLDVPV

Compound | IC50 [1] [nM] | IC50 [2] [nM] | GI50 (Ba/F3 ERBB2 YVMA) [nM]
Cc1cc(Nc2ncnc3cnc4c(c23)O[C@@H]2CCN(C)C[C@H]2N4C)ccc1Oc1ccc2c(c1)ncn2C [Compound 133, (7aR,11aR)-7,9-dimethyl-N-(3-methyl-4-((1-methyl-1H-benzo[d]imidazol-5-yl)oxy)phenyl)-7a,8,9,10,11,11a-hexahydro-7H-pyrido[4,3-b]pyrimido[5′,4′:4,5]pyrido[2,3-e][1,4]oxazin-1-amine] | 41.9 | > 10000 | 60.1
C=CC(=O)N1CCN2C[C@H]1COc1c2ccc2ncnc(Nc3ccc(Oc4ccn5ncnc5c4)c(C)c3)c12 [Compound 24, 1-((3S)-13-((4-([1,2,4]triazolo[1,5-a]pyridin-7-yloxy)-3-methylphenyl)amino)-2,3,5,6-tetrahydro-4H-3,7-methano[1,4,7]oxadiazonino[2,3-f]quinazolin-4-yl)prop-2-en-1-one] | 430 | > 10000 | > 500
Cc1cc(Nc2ncnc3cc4c(nc23)N2CCN(C(=O)/C=C/CN(C)C)C[C@H]2CO4)ccc1Oc1ccc2c(c1)ncn2C [Compound 17, (S,E)-4-(dimethylamino)-1-(11-((3-methyl-4-((1-methyl-1H-benzo[d]imidazol-5-yl)oxy)phenyl)amino)-1,2,4a,5-tetrahydropyrazino[1,2-d]pyrimido[4′,5′:5,6]pyrido[3,2-b][1,4]oxazin-3(4H)-yl)but-2-en-1-one] | 34.3 | 307 | 5.11
Cc1cc(Nc2ncnc3ccc4c(c23)OC[C@H]2CN4CCN2C(=O)/C=C/[C@H](C)N(C)C)ccc1Oc1ccn2ncnc2c1 [Compound 89, (4S,E)-1-((3R)-13-((4-([1,2,4]triazolo[1,5-a]pyridin-7-yloxy)-3-methylphenyl)amino)-2,3,5,6-tetrahydro-4H-3,7-methano[1,4,7]oxadiazonino[2,3-f]quinazolin-4-yl)-4-(dimethylamino)pent-2-en-1-one] | 172 | > 10000 | 264
Cc1cc(Nc2ncnc3cc4c(cc23)N2CCN(C(=O)/C=C/CN(C)C)C[C@@H]2CO4)ccc1Oc1ccn2ncnc2c1 [Compound 10, (R,E)-1-(11-((4-([1,2,4]triazolo[1,5-a]pyridin-7-yloxy)-3-methylphenyl)amino)-1,2,4a,5-tetrahydropyrazino[1′,2′:4,5][1,4]oxazino[3,2-g]quinazolin-3(4H)-yl)-4-(dimethylamino)but-2-en-1-one] | 32.7 | 3280 | 84.9
CC#CC(=O)N1CCN2c3nc4c(Nc5ccc(Oc6ccn7ncnc7c6)c(C)c5)ncnc4cc3OC[C@@H]2C1 [Compound 32, (S)-1-(11-((4-([1,2,4]triazolo[1,5-a]pyridin-7-yloxy)-3-methylphenyl)amino)-1,2,4a,5-tetrahydropyrazino[1,2-d]pyrimido[4′,5′:5,6]pyrido[3,2-b][1,4]oxazin-3(4H)-yl)but-2-yn-1-one] | 51.4 | 4770 | 18.3
Cc1cc(Nc2ncnc3cc4c(nc23)N2CCN(C)C[C@H]2CO4)ccc1Oc1ccn2ncnc2c1 [Compound 33, (S)—N-(4-([1,2,4]triazolo[1,5-a]pyridin-7-yloxy)-3-methylphenyl)-3-methyl-1,2,3,4,4a,5-hexahydropyrazino[1,2-d]pyrimido[4′,5′:5,6]pyrido[3,2-b][1,4]oxazin-11-amine] | 52.4 | > 10000 | 271
Cc1cc(Nc2ncnc3ccc4c(c23)OC[C@H]2CN4CCN2C(=O)/C=C/[C@H](C)N(C)C)c(F)cc1Oc1ccn2ncnc2c1 [Compound 91, (4S,E)-1-((3R)-13-((4-([1,2,4]triazolo[1,5-a]pyridin-7-yloxy)-2-fluoro-5-methylphenyl)amino)-2,3,5,6-tetrahydro-4H-3,7-methano[1,4,7]oxadiazonino[2,3-f]quinazolin-4-yl)-4-(dimethylamino)pent-2-en-1-one triformate] | 147 | > 10000 | 164
Cc1cc(Nc2ncnc3ccc4c(c23)OC[C@H]2CN4CCN2)ccc1Oc1ccn2ncnc2c1 [Compound 51, (3R)—N-(4-([1,2,4]triazolo[1,5-a]pyridin-7-yloxy)-3-methylphenyl)-3,4,5,6-tetrahydro-2H-3,7-methano[1,4,7]oxadiazonino[2,3-f]quinazolin-13-amine] | 128 | > 10000 | > 500
C=CC(=O)N1CCN2c3ccc4ncnc(Nc5ccc(Oc6ccc7c(c6)ncn7C)c(C)c5)c4c3OC[C@H]2C1 [Compound 20, (R)-1-(4-((3-methyl-4-((1-methyl-1H-benzo[d]imidazol-5-yl)oxy)phenyl)amino)-6a,7,9,10-tetrahydropyrazino[1′,2′:4,5][1,4]oxazino[2,3-f]quinazolin-8(6H)-yl)prop-2-en-1-one] | 27.5 | 150 | 19.7

More lines, in order of falling IC50 [1], values ahead:

IC50 [1] [nM] | IC50 [2] [nM] | Compound | GI50 (Ba/F3 ERBB2 YVMA) [nM]
27.4 | 817 | Cc1cc(Nc2ncnc3ccc4c(c23)OC[C@@H]2CN(C(=O)/C=C/CN(C)C)CCN42)ccc1Oc1ccc2c(c1)ncn2C [Compound 23, (S,E)-4-(dimethylamino)-1-(4-((3-methyl-4-((1-methyl-1H-benzo[d]imidazol-5-yl)oxy)phenyl)amino)-6a,7,9,10-tetrahydropyrazino[1′,2′:4,5][1,4]oxazino[2,3-f]quinazolin-8(6H)-yl)but-2-en-1-one] | 13.8
26.4 | > 10000 | Cc1cc(Nc2ncnc3cnc4c(c23)OC[C@H]2CN(C)CCN42)ccc1Oc1ccc2c(c1)ncn2C [Compound 120, (R)-8-methyl-N-(3-methyl-4-((1-methyl-1H-benzo[d]imidazol-5-yl)oxy)phenyl)-6,6a,7,8,9,10-hexahydropyrazino[1,2-d]pyrimido[5′,4′:4,5]pyrido[3,2-b][1,4]oxazin-4-amine] | 44.3
21.8 | 1170 | Cc1cc(Nc2ncnc3cnc4c(c23)OC[C@@H]2CN(C(=O)/C=C/CN(C)C)CCN42)ccc1Oc1ccn2ncnc2c1 [Compound 112, (S,E)-1-(4-((4-([1,2,4]triazolo[1,5-a]pyridin-7-yloxy)-3-methylphenyl)amino)-6a,7,9,10-tetrahydropyrazino[1,2-d]pyrimido[5′,4′:4,5]pyrido[3,2-b][1,4]oxazin-8(6H)-yl)-4-(dimethylamino)but-2-en-1-one] | 13.3
17.2 | 785 | Cc1cc(Nc2ncnc3ccc4c(c23)OC[C@H]2CN4CCN2C(=O)/C=C/C2(F)CN(C)C2)ccc1Oc1ccn2ncnc2c1 [Compound 81, (E)-1-((3R)-13-((4-([1,2,4]triazolo[1,5-a]pyridin-7-yloxy)-3-methylphenyl)amino)-2,3,5,6-tetrahydro-4H-3,7-methano[1,4,7]oxadiazonino[2,3-f]quinazolin-4-yl)-3-(3-fluoro-1-methylazetidin-3-yl)prop-2-en-1-one] | 8.51
14.2 | 84.4 | Cc1cc(Nc2ncnc3ccc4c(c23)OC[C@H]2CN4CCN2C(=O)/C=C/CN(C)C)ccc1Oc1ccc2c(c1)nnn2C [Compound 79, (E)-4-(dimethylamino)-1-((3R)-13-((3-methyl-4-((1-methyl-1H-benzo[d][1,2,3]triazol-5-yl)oxy)phenyl)amino)-2,3,5,6-tetrahydro-4H-3,7-methano[1,4,7]oxadiazonino[2,3-f]quinazolin-4-yl)but-2-en-1-one] | 6.04
11.3 | 593 | Cc1cc(Nc2ncnc3cnc4c(c23)OC[C@H]2CN(C(=O)/C=C/CN(C)C)CCN42)ccc1Oc1ccn2ncnc2c1 [Compound 113, (R,E)-1-(4-((4-([1,2,4]triazolo[1,5-a]pyridin-7-yloxy)-3-methylphenyl)amino)-6a,7,9,10-tetrahydropyrazino[1,2-d]pyrimido[5′,4′:4,5]pyrido[3,2-b][1,4]oxazin-8(6H)-yl)-4-(dimethylamino)but-2-en-1-one] | 3.57
10.9 | 572 | Cc1cc(Nc2ncnc3ccc4c(c23)OC[C@H]2CN(C(=O)/C=C/CN(C)C)CCN42)c(F)cc1Oc1ccn2ncnc2c1 [Compound 116, (R,E)-1-(4-((4-([1,2,4]triazolo[1,5-a]pyridin-7-yloxy)-2-fluoro-5-methylphenyl)amino)-6a,7,9,10-tetrahydropyrazino[1′,2′:4,5][1,4]oxazino[2,3-f]quinazolin-8(6H)-yl)-4-(dimethylamino)but-2-en-1-one] | 14
7.89 | 517 | C=CC(=O)N1CCN2c3ccc4ncnc(Nc5ccc(Oc6ccn7ncnc7c6)c(C)c5)c4c3OC[C@@H]2C1 [Compound 5, (S)-1-(4-((4-([1,2,4]triazolo[1,5-a]pyridin-7-yloxy)-3-methylphenyl)amino)-6a,7,9,10-tetrahydropyrazino[1′,2′:4,5][1,4]oxazino[2,3-f]quinazolin-8(6H)-yl)prop-2-en-1-one] | 4.62
